Molecular target: P. falciparum apicoplast DNA polymerase (Pf-apPOL) (Plasmodium falciparum, UniProt Q8ILY1)
Experiment: Fluorescence-based high-throughput DNA polymerase assay (molecular beacon), primary screen and dose-response
Type: biochemical
Details: for DNA Pol: unit not given, 90 min, 10 µM; for % inhibition Apo pol 10' 2.5 / % inhibition Apo pol 10' 5 / % inhibition Apo pol 10' 10 / % inhibition Apo pol 10' 20 / % inhibition Apo pol 10' 40 / % inhibition Apo pol 10' 80: read at 10'; for % inhibition Apol 90' 2.5 / % inhibition Apol 90' 5 / % inhibition Apol 90' 10 / % inhibition Apol 90' 20 / % inhibition Apol 90' 40 / % inhibition Apol 90' 80 / % inhibition ApPOL 90' 2.5 / % inhibition ApPOL 90' 5 / % inhibition ApPOL 90' 10 / % inhibition ApPOL 90' 20 / % inhibition ApPOL 90' 40 / % inhibition ApPOL 90' 80: read at 90'; for % inhibition apPOL 180' 2.5 / % inhibition apPOL 180' 5 / % inhibition apPOL 180' 10 / % inhibition apPOL 180' 20 / % inhibition apPOL 180' 40 / % inhibition apPOL 180' 80: read at 180'; for % inhibition Apo pol 5' 2.5 / % inhibition Apo pol 5' 5 / % inhibition Apo pol 5' 10 / % inhibition Apo pol 5' 20 / % inhibition Apo pol 5' 40 / % inhibition Apo pol 5' 80: read at 5'; for % inhibition Apol 40' 2.5 / % inhibition Apol 40' 5 / % inhibition Apol 40' 10 / % inhibition Apol 40' 20 / % inhibition Apol 40' 40 / % inhibition Apol 40' 80: read at 40'
Summary of the method: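 Single-point screening used 10 µM compound with 20 nM polymerase, 20 nM hairpin substrate and 6 µM dNTPs for 90 min at 25 °C. Confirmatory titrations (2.5–80 µM) followed fluorescence at three times, and IC50 was derived from a fit including a cooperativity term n.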

[1] = 186 hits, DNA Pol (screen value)

P. falciparum apicoplast DNA polymerase (Pf-apPOL), sequence (Q8ILY1 entry or part of it): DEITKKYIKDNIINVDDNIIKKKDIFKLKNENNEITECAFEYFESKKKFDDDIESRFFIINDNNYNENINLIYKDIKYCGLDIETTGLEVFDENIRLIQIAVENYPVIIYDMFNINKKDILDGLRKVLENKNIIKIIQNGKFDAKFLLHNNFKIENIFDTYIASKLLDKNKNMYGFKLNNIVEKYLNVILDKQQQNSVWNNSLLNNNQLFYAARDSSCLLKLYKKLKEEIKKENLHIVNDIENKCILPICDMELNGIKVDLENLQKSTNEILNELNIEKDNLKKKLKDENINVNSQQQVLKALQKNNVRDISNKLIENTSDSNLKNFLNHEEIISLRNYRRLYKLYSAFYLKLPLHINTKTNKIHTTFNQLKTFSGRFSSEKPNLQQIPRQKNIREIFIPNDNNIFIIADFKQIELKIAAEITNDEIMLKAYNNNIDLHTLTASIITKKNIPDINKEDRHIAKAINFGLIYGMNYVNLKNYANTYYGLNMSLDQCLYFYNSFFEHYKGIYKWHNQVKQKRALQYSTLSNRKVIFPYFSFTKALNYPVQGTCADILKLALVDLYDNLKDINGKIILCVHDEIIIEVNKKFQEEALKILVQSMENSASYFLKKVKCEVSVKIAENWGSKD

O=C(CCc1csc(NC(=O)Nc2ccccc2)n1)Nc1nc2ccccc2s1 [KU0177354]
DNA Pol [1]: 40
DNA Pol ('DNA Pol' (screen value)): 40
% inhibition Apo pol 10' 2.5 (DRC-1, concentration 2.5): 5.576%
% inhibition Apo pol 10' 5 (DRC-1, concentration 5): 8.503%
% inhibition Apo pol 10' 10 (DRC-1, concentration 10): 43.0217%
% inhibition Apo pol 10' 20 (DRC-1, concentration 20): 76.9078%
% inhibition Apo pol 10' 40 (DRC-1, concentration 40): 79.3304%
% inhibition Apo pol 10' 80 (DRC-1, concentration 80): 82.5837%
% inhibition Apol 90' 2.5 (DRC-1, concentration 2.5): -1.376%
% inhibition Apol 90' 5 (DRC-1, concentration 5): -0.284%
% inhibition Apol 90' 10 (DRC-1, concentration 10): 25.6988%
% inhibition Apol 90' 20 (DRC-1, concentration 20): 59.1025%
% inhibition Apol 90' 40 (DRC-1, concentration 40): 63.1922%
% inhibition Apol 90' 80 (DRC-1, concentration 80): 69.3927%
% inhibition apPOL 180' 2.5 (DRC-1, concentration 2.5): -6.865%
% inhibition apPOL 180' 5 (DRC-1, concentration 5): -6.2%
% inhibition apPOL 180' 10 (DRC-1, concentration 10): 11.7395%
% inhibition apPOL 180' 20 (DRC-1, concentration 20): 39.4261%
% inhibition apPOL 180' 40 (DRC-1, concentration 40): 45.9927%
% inhibition apPOL 180' 80 (DRC-1, concentration 80): 55.8861%
% inhibition Apo pol 5' (DRC-2, concentration 5): -6%
% inhibition Apo pol 5' (DRC-2, concentration 20): 37%
% inhibition Apol 40' (DRC-2, concentration 5): -6%
% inhibition Apol 40' (DRC-2, concentration 10): 46%
% inhibition Apol 40' (DRC-2, concentration 20): 49%
% inhibition Apol 40' (DRC-2, concentration 40): 53%
% inhibition Apol 40' (DRC-2, concentration 80): 49%
% inhibition ApPOL 90' (DRC-2, concentration 40): 53%
% inhibition apPOL 180' (DRC-2, concentration 20): 37%
% inhibition apPOL 180' (DRC-2, concentration 80): 46%
% inhibition Apo pol 5' 2.5 (DRC-2, concentration 2.5): -3.16%
% inhibition Apo pol 5' 5 (DRC-2, concentration 5): -6%
% inhibition Apo pol 5' 10 (DRC-2, concentration 10): 38%
% inhibition Apo pol 5' 20 (DRC-2, concentration 20): 37%
% inhibition Apo pol 5' 40 (DRC-2, concentration 40): 34%
% inhibition Apo pol 5' 80 (DRC-2, concentration 80): 29%
% inhibition Apol 40' 2.5 (DRC-2, concentration 2.5): -3.41%
% inhibition Apol 40' 5 (DRC-2, concentration 5): -6%
% inhibition Apol 40' 10 (DRC-2, concentration 10): 46%
% inhibition Apol 40' 20 (DRC-2, concentration 20): 49%
% inhibition Apol 40' 40 (DRC-2, concentration 40): 53%
% inhibition Apol 40' 80 (DRC-2, concentration 80): 49%
% inhibition ApPOL 90' 2.5 (DRC-2, concentration 2.5): -4%
% inhibition ApPOL 90' 5 (DRC-2, concentration 5): -7%
% inhibition ApPOL 90' 10 (DRC-2, concentration 10): 43%
% inhibition ApPOL 90' 20 (DRC-2, concentration 20): 48%
% inhibition ApPOL 90' 40 (DRC-2, concentration 40): 53%
% inhibition ApPOL 90' 80 (DRC-2, concentration 80): 51%
% inhibition apPOL 180' 2.5 (DRC-2, concentration 2.5): -8%
% inhibition apPOL 180' 5 (DRC-2, concentration 5): -12%
% inhibition apPOL 180' 10 (DRC-2, concentration 10): 32%
% inhibition apPOL 180' 20 (DRC-2, concentration 20): 37%
% inhibition apPOL 180' 40 (DRC-2, concentration 40): 47%
% inhibition apPOL 180' 80 (DRC-2, concentration 80): 46%

CCCc1ccc(Oc2coc3cc(OC)ccc3c2=O)cc1 [KU0193249]
DNA Pol [1]: 73
DNA Pol ('DNA Pol' (screen value)): 73
% inhibition Apo pol 10' 2.5 (DRC-1, concentration 2.5): 7.919%
% inhibition Apo pol 10' 5 (DRC-1, concentration 5): 6.719%
% inhibition Apo pol 10' 10 (DRC-1, concentration 10): 11.6444%
% inhibition Apo pol 10' 20 (DRC-1, concentration 20): 12.8685%
% inhibition Apo pol 10' 40 (DRC-1, concentration 40): 28.2048%
% inhibition Apo pol 10' 80 (DRC-1, concentration 80): 56.0479%
% inhibition Apol 90' 2.5 (DRC-1, concentration 2.5): 14.2398%
% inhibition Apol 90' 5 (DRC-1, concentration 5): 11.6391%
% inhibition Apol 90' 10 (DRC-1, concentration 10): 17.4321%
% inhibition Apol 90' 20 (DRC-1, concentration 20): 14.1885%
% inhibition Apol 90' 40 (DRC-1, concentration 40): 28.8567%
% inhibition Apol 90' 80 (DRC-1, concentration 80): 54.3218%
% inhibition apPOL 180' 2.5 (DRC-1, concentration 2.5): 21.2124%
% inhibition apPOL 180' 5 (DRC-1, concentration 5): 19.9497%
% inhibition apPOL 180' 10 (DRC-1, concentration 10): 25.9143%
% inhibition apPOL 180' 20 (DRC-1, concentration 20): 21.3211%
% inhibition apPOL 180' 40 (DRC-1, concentration 40): 35.4665%
% inhibition apPOL 180' 80 (DRC-1, concentration 80): 56.5719%
% inhibition Apo pol 5' (DRC-2, concentration 2.5): 8%
% inhibition Apo pol 5' (DRC-2, concentration 5): 12%
% inhibition Apo pol 5' (DRC-2, concentration 20): 17%
% inhibition Apo pol 5' (DRC-2, concentration 40): 20%
% inhibition Apol 40' (DRC-2, concentration 10): 17%
% inhibition Apol 40' (DRC-2, concentration 20): 20%
% inhibition Apol 40' (DRC-2, concentration 40): 25%
% inhibition ApPOL 90' (DRC-2, concentration 10): 17%
% inhibition ApPOL 90' (DRC-2, concentration 20): 22%
% inhibition ApPOL 90' (DRC-2, concentration 40): 25%
% inhibition apPOL 180' (DRC-2, concentration 5): 8%
% inhibition apPOL 180' (DRC-2, concentration 10): 12%
% inhibition apPOL 180' (DRC-2, concentration 40): 22%
% inhibition Apo pol 5' 2.5 (DRC-2, concentration 2.5): 8%
% inhibition Apo pol 5' 5 (DRC-2, concentration 5): 12%
% inhibition Apo pol 5' 10 (DRC-2, concentration 10): 13%
% inhibition Apo pol 5' 20 (DRC-2, concentration 20): 17%
% inhibition Apo pol 5' 40 (DRC-2, concentration 40): 20%
% inhibition Apo pol 5' 80 (DRC-2, concentration 80): 36%
% inhibition Apol 40' 2.5 (DRC-2, concentration 2.5): 6.51%
% inhibition Apol 40' 5 (DRC-2, concentration 5): 15%
% inhibition Apol 40' 10 (DRC-2, concentration 10): 17%
% inhibition Apol 40' 20 (DRC-2, concentration 20): 20%
% inhibition Apol 40' 40 (DRC-2, concentration 40): 25%
% inhibition Apol 40' 80 (DRC-2, concentration 80): 47%
% inhibition ApPOL 90' 2.5 (DRC-2, concentration 2.5): 4.24%
% inhibition ApPOL 90' 5 (DRC-2, concentration 5): 14%
% inhibition ApPOL 90' 10 (DRC-2, concentration 10): 17%
% inhibition ApPOL 90' 20 (DRC-2, concentration 20): 22%
% inhibition ApPOL 90' 40 (DRC-2, concentration 40): 25%
% inhibition ApPOL 90' 80 (DRC-2, concentration 80): 51%
% inhibition apPOL 180' 2.5 (DRC-2, concentration 2.5): -0.201%
% inhibition apPOL 180' 5 (DRC-2, concentration 5): 8%
% inhibition apPOL 180' 10 (DRC-2, concentration 10): 12%
% inhibition apPOL 180' 20 (DRC-2, concentration 20): 18%
% inhibition apPOL 180' 40 (DRC-2, concentration 40): 22%
% inhibition apPOL 180' 80 (DRC-2, concentration 80): 52%
